Among the data in a melting point compilation (Tetko et al.; mined from patent text by program, amines drawn as free bases though some values may be those of a salt) are melting point values, retold here.

The compound `CCCCc1oc2ccccc2c1C(=O)NCc1ccc2c(-c3ccccc3)c(OCC#N)ccc2c1` had a melting point of 135 to 138 °C.
In the case of `CC(=O)c1ccc(OCCOc2ccc3ccccc3c2)cc1C` it was 128 to 130 °C; in that of `O=C(CCC(=O)c1cccs1)Nc1cccc2cc(-c3nccs3)[nH]c12`, 140 to 141 °C.
With `N=C(NC(=O)NCCCCCCNC(=O)NC(=N)Nc1ccc(Cl)cc1)Nc1ccc(Cl)cc1`, the melting point lay in the range of 186 to 190 °C.
In turn, `CSc1nc2ncccc2c2nnc(SCc3ccccc3)n12` registered a melting point of 157 to 158 °C.
The compound `CC1(C)N=C(n2ccc(O)cc2=O)c2cc(Br)ccc2O1` registered a melting point of 171 to 172 °C.
In the case of `CC(C)(C)[Si](C)(C)Oc1ccc(-c2ccc(C3CCC(c4c(F)cccc4F)=N3)cc2)cc1` (stereo unspecified), the melting point was 33 °C.
For `CC1(O)CCCc2nc3ccccc3c(N)c21` (stereo unspecified), the melting point was found to be 250 °C.
In turn, `CS(=O)(=O)Nc1ccc(C=CC(=O)N2CCc3c([nH]c4ccccc34)C2c2ccc3c(c2)OCO3)cc1` (stereo unspecified) registered a melting point of 203 °C.
`COc1ccc(C2CNC(=O)C2)cc1OCC(CN1CCN(c2ccccc2)CC1)OC(C)=O` (stereo unspecified): the melting point lay within 128 to 133 °C.
With `CCn1ncc2c(Cl)c3c(nc21)CCc1ccccc1C3=O` the figure was 111 to 113 °C.
With `COC(=O)c1sc(-n2cccn2)cc1O` the figure was 162 to 164 °C; with `CCOC(=O)C1=C(N)NC(N)=C(C(=O)OCC)C1c1ccccc1C(F)(F)F`, 191 °C; with `CC=CC(=O)C1C(C)CCCC1(C)C` (stereo unspecified), 8 to 9 °C.
In turn, `CCCCCCCCCCCC(=O)NCCNCCNCCNC(=O)CCCCCCCCCCC` showed a melting point of 110 to 112 °C.
In the case of `CCOC(=O)N(CC(=O)O)C(=O)c1c(OCC(F)(F)F)ccc2c(C(F)(F)F)c(OC)ccc12`, the melting point lay within 166 to 167 °C.
In the case of `CCOP(=O)(O)Cc1ccc(NC(=O)CCc2cnoc2-c2ccccc2)cc1` it was 80 to 82 °C.
With `CC(C)Oc1ccc(S(=O)(=O)N2CCCC2=O)cc1`, the melting point lay in the range of 88 to 90 °C.
`COc1ccc(N2CCN(c3c(C)c(C)c4c(c3C)C(C3CCCCC3)C(C)(C)O4)CC2)cc1` (stereo unspecified): the melting point lay in the range of 119 to 121 °C.
Compound `Cc1nc2c(c3c1[nH]c1cc(F)ccc13)C(=O)CC(C)(C)C2` returned a melting point of 244 to 246 °C.
In turn, `C[N+](C)([O-])c1ccc(/C=C/c2c(F)cccc2F)cc1` gave a melting point of 100 to 103 °C.
Turning to `O=S1(=O)CCN(CCCN2CCc3sc(Nc4ncc(F)cn4)nc3-c3c[nH]nc32)CC1`, the melting point fell in the range of 272 to 273 °C.
In the case of `COc1ccccc1SCC1NCCS1` (stereo unspecified) it was 111 to 112 °C; in that of `FC(F)(F)c1ccc(C=CC(C=Cc2ccc(C(F)(F)F)cc2)=NNC2=NCCCN2)cc1`, 196 to 197 °C; in that of `CC(=O)c1c(C)nc(C)c(C(=O)OCCC#N)c1-c1cccc([N+](=O)[O-])c1`, 85 °C.
For the compound `O=C(Nc1ccccc1)c1ccc([N+](=O)[O-])cc1`, the melting point fell in the range of 90 to 93 °C.
`CC(C)NCCC(C(N)=O)c1ccccc1-c1ccccc1` (stereo unspecified) displayed a melting point of 92 to 95 °C.
In turn, `CCOC(=O)c1noc([C@@H](Cc2ccc3ccccc3c2)N(C)C(=O)OC(C)(C)C)n1` returned a melting point of 99 to 102 °C.
As to `COc1ccccc1COc1ccc(S(=O)(=O)c2ccc(C)nc2Nc2cc(OC)c(OC)cc2C)cc1`, the melting point fell in the range of 62 to 66 °C.
Regarding `CCOc1nn(Cc2cccc(OCc3nc(-c4ccccc4)oc3C)n2)cc1CCC(=O)O`, the melting point was 144 to 145 °C.
On to `COc1cc(Nc2ccnc(Nc3cc(OC)c(OC)c(OC)c3)n2)cc(OC)c1OC`, for which the melting point is 180 °C.
For the compound `CCOC(=O)c1ccc(CNC(N)=O)cc1`, the melting point fell in the range of 173 to 175 °C.
In the case of `NC(=O)NN(C(=O)c1ccccc1)c1ccccn1` it was 206 °C; in that of `COC(=O)c1ccc(-c2nc3cc(C(=O)O)ccc3o2)cc1`, 275 to 284 °C; in that of `Cc1nc(CN(C)C)n(-c2ccc(Cl)cc2C(=O)c2ccccc2Cl)c1CN1C(=O)c2ccccc2C1=O`, 121 to 150 °C.
For the compound `CC1COC(=O)N1c1cc(-c2ccnc(Nc3cccc(Cl)c3)n2)ccn1` (stereo unspecified), the melting point lay within 177 to 178 °C.
With `Cc1c(C#N)c(=O)[nH]c(=O)n1Nc1c(Cl)cc(Cl)cc1Cl` the figure was above 305 °C; with `CC(C)Oc1ccc(C2CCc3cccc(C(=O)O)c3N2)cc1` (stereo unspecified), 166 to 167 °C.
For `N=C1C2CC(F)CN2C(=O)CN1C1CCC(Cn2cncn2)C1` (stereo unspecified), the melting point lay in the range of 158 to 162 °C.
Regarding `O=C(OCc1ccnc2ccccc12)ON1C(=O)CCC1=O`, the melting point was 94 °C.
In the case of `CCCn1c(=O)c2cc(C(=O)O)cn2c2ccccc21` it was 260 to 262 °C.
`CCOC(=O)Cc1c2c(nn1-c1ccccc1)c(=O)[nH]c1ccccc12` showed a melting point of 301 to 303 °C.
On to `COc1cc(OC)nc(NC(=O)NS(=O)(=O)c2ccccc2S(N)(=O)=O)n1`, for which the melting point lay in the range of 192 to 193 °C.
In turn, `CN(C)N=Nc1c[nH]c(=O)[nH]c1=O` displayed a melting point of 166 to 167 °C.
`CC1N=C(c2ccccc2F)c2cc(C#N)ccc2NC1=O` (stereo unspecified): the melting point came to 216 °C.
Compound `Fc1ccc(-c2ccc3nnn(Cc4ccc5ncccc5c4)c3n2)cc1` came in with a melting point of 153 to 156 °C.
With `Cc1ccc([N+](=O)[O-])c2c1C(N1C(=O)c3ccccc3C1=O)CCC2=O` (stereo unspecified), the melting point was 220 to 230 °C.
On to `COC(=O)CCCc1cc2nc(Cl)ccc2n1S(=O)(=O)c1cccnc1`, for which the melting point was 119 °C.
On to `CCOC(=O)Cc1c(C(=O)OCC)c(C)c(C(=O)c2ccc(C)cc2)n1C`, for which the melting point was in the range of 108 to 111 °C.
In the case of `CC(c1n[nH]c(=O)[nH]1)N1CCC[C@H](O[C@H](C)c2cc(C(F)(F)F)cc(C(F)(F)F)c2)[C@@H]1c1ccccc1` (stereo partly specified) it was 257 to 258 °C.
With `CN(CCO)C(=O)c1cc2ccccc2[nH]1` the figure was 141 to 142 °C.
Take `CCC(O)(CC)Cc1ccc(N)cc1`: the melting point was 85 to 86 °C.
With `OC(c1ccc(Cl)cc1)(c1ccc(Cl)cc1)c1cn[nH]c1` the figure was 135 to 137 °C.
`COc1cccc(C(=O)O)c1-c1ccccc1OC(C)C` registered a melting point of 139 to 140 °C.
Consider `CC1CCOCC1C(C#N)=NO` (stereo unspecified), for which the melting point lay in the range of 94 to 96 °C.
On to `CC(=O)c1c(C)[nH]c(C(C)C)c1C`, for which the melting point was 166 to 167 °C.
Turning to `CC(=O)c1ccc(Nc2cccc(-c3cccnc3)c2)c(N)c1`, the melting point lay within 175 to 176 °C.
Turning to `C=S1c2ccccc2N(CCN2CCOCC2)C(=O)C1c1ccc(Cl)cc1` (stereo unspecified), the melting point is 169 to 173 °C.
Regarding `COc1cc(OC)c(NC(=O)CBr)c(OC)c1`, the melting point was in the range of 160 to 161 °C.
With `COc1ccc(Nc2cc(-c3ccccc3)nc(NC3CCC(O)CC3)n2)cc1Cl` (stereo unspecified), the melting point was 293 to 295 °C.
Regarding `CN(C)C=NS(=O)(=O)c1ccc(F)c(F)c1`, the melting point was in the range of 109 to 112 °C.
The compound `CCOC(=O)N(NC(N)=O)c1ccc(CC[Si](OCC)(OCC)OCC)cc1` came in with a melting point of 123 to 124 °C.
With `CCCOc1ccc(F)c2c(=O)c3ccccc3sc12` the figure was 125 to 127 °C.
In the case of `CCCc1nn(CC)c2c(=O)n(CCOc3cccc(OC(C)(C)C(=O)O)c3)c(C)nc12`, the melting point was in the range of 147 to 149 °C.
The compound `O=C(c1cccc(O)c1)c1nn(C2CCCC2)c2c(C(F)(F)F)cccc12` gave a melting point of 152 °C.
Compound `O=[N+]([O-])c1c(NCCCO)cc(Cl)cc1NCCCO` showed a melting point of 127 °C.
With `CCOC(=O)Cc1nc2ccccc2n1C` the figure was 66 to 67 °C; with `COc1ccccc1NC(=O)Nc1ccc(CC(=O)O)cc1OC`, 182 to 185 °C.
In turn, `COc1ccc(OC(C(=O)O)c2ccccc2)cc1` (stereo unspecified) had a melting point of 108 to 110 °C.
As for `N#CC(C#N)=C(N)NCCCc1ccccc1`, the melting point lay in the range of 165 to 167 °C.
`O=C1CCC(=O)N1Cc1nc2sc3c(c2c(-c2ccc(O)cc2)c1Cl)CCS(=O)C3` (stereo unspecified) displayed a melting point of 274 to 276 °C.
On to `CCCCCCCCCCCCCCS(N)(=O)=O`, for which the melting point lay in the range of 92 to 93 °C.
Compound `O=C(O)CN1C(=O)CN(Cc2ccccc2)C1=O` had a melting point of 125 to 127 °C.
Take `Cc1cc(F)cc2c1CC/C2=C\C(=O)O`: the melting point fell in the range of 243 to 246 °C.
For the compound `OC(=Cc1ccccc1)C(O)C(O)C(O)C(O)C(O)=Cc1ccccc1` (stereo unspecified), the melting point is 210 °C.
With `N#Cc1nc(F)c(F)c(N)c1Cl` the figure was 190 to 192 °C; with `COC(=O)Nc1cc(O)c(Cl)cc1F`, 140 to 141 °C.
In turn, `Cc1cc2c(-c3ccccc3Cl)c(NC(=O)Nc3ccc(F)cc3F)c(=O)n(C)c2cc1C` registered a melting point of 242 to 244 °C.
In turn, `CC(C)NC1=NS(=O)(=O)c2c(Cl)cccc2N1` came in with a melting point of 144 to 146 °C.
Take `CC(C)(C)C(O)C(=O)CCn1cncn1` (stereo unspecified): the melting point lay within 80 to 83 °C.
On to `CN=C(NC#N)Oc1ccccc1`, for which the melting point was 132 to 133 °C.
In turn, `Cc1ccc(-c2cn(C)cc(-c3ccccc3)c2=O)cc1Br` had a melting point of 168 to 170 °C.
`CC(C)Cn1cnc2c(N)nc3ccc(CCO)cc3c21`: the melting point fell in the range of 214 to 216 °C.
As to `CCC(C)N1CN(C)C(=O)N(c2nc3c(s2)C(=O)CC(C)(C)C3)C1` (stereo unspecified), the melting point fell in the range of 126 to 127 °C.
The compound `COc1cc(-c2nc(-n3nccn3)c3c(C)c(C#N)sc3n2)cc(OC)c1OC` had a melting point of 208 to 210 °C.
`O=C(CNC(=O)c1cc([N+](=O)[O-])c([N+](=O)[O-])cc1Cl)OCc1ccccc1` displayed a melting point of 122 to 124 °C.
`N#CCOc1cccc(CN2C(=O)c3cccc(NC(=O)c4ccc(Cl)s4)c3C2=O)c1` came in with a melting point of 164 °C.
With `CNc1c(F)ccc(-n2cc(C(=O)O)c(=O)c3cc(F)c(NC)c(Cl)c32)c1F`, the melting point lay in the range of 245 to 248 °C.
With `c1ccc(N(c2ccccc2)c2ccsc2)cc1` the figure was 79 to 82 °C.
In the case of `O=c1oc(-c2ccc(OCc3cccnc3)cc2)cc(O)c1SCCc1ccccc1` it was 178 to 179 °C; in that of `CON=C(C)CCCn1c(C)nc2c(N)nc3ccccc3c21`, 158 to 161 °C.
